The text below walks through data of ChEMBL document CHEMBL3044725, “Structure-based molecular design, synthesis, and in vivo anti-inflammatory activity of pyridazinone derivatives as nonclassic COX-2 inhibitors” (2010).

What all share (type): functional
What all share (settings): route subcutaneous

The subject of experiment [1] is Rattus norvegicus. Kind of experiment: Anti-inflammatory activity in Rattus norvegicus albino (rat) assessed as reduction in carrageenan-induced paw volume at 5 mg/kg, sc pretreated 1 hr before carrageenan challenge measured after 1 hr by plethysmometer (reference value: 1.95 +/- 0.03 to 2 ml). In general terms: Carrageenan injected into the paw causes an acute inflammation.

The test system of experiment [2] is Rattus norvegicus. Kind of experiment: Anti-inflammatory activity in Rattus norvegicus albino (rat) assessed as reduction in carrageenan-induced paw volume at 5 mg/kg, sc pretreated 2 hr before carrageenan challenge measured after 1 hr by plethysmometer (reference value: 1.95 +/- 0.03 to 2 ml).
The subject of experiment [3] is Rattus norvegicus. Kind of experiment: Anti-inflammatory activity in Rattus norvegicus albino (rat) assessed as reduction in carrageenan-induced paw volume at 5 mg/kg, sc pretreated 3 hr before carrageenan challenge measured after 1 hr by plethysmometer (reference value: 1.95 +/- 0.03 to 2 ml).
In experiment [4] the test system is Rattus norvegicus. In words: Anti-inflammatory activity in Rattus norvegicus albino (rat) assessed as reduction in carrageenan-induced paw volume at 5 mg/kg, sc pretreated 4 hr before carrageenan challenge measured after 1 hr by plethysmometer (reference value: 1.95 +/- 0.03 to 2 ml).

On to `O=C(O)Cc1ccccc1Nc1c(Cl)cccc1Cl` [DICLOFENAC], for which the Activity in experiment [1] stood at 0.92 mL; in experiment [2] it was 0.57 mL; in experiment [3], 0.3 mL; in experiment [4], 0.03 mL.

Take `O=c1ccc(C2Nc3ccccc3NC2c2ccccc2)n[nH]1` (stereo not drawn): the Activity was 2 mL in experiment [1], 2.02 mL in experiment [2], 2 mL in experiment [3] and 2.07 mL in experiment [4].

With `COc1ccc(C2Nc3ccccc3NC2c2ccc(=O)[nH]n2)cc1` (stereo not drawn), the Activity in experiment [1] was determined as 1.58 mL; in experiment [2], 1.42 mL; in experiment [3] it was 1.38 mL; in experiment [4] it was 1.32 mL.

Consider `O=c1ccc(-c2nc3ccccc3nc2-c2ccccc2)n[nH]1`, for which the Activity in experiment [1] is 1.97 mL; in experiment [2], 1.37 mL; in experiment [3], 1 mL; in experiment [4] it was 0.38 mL.

In the case of `O=c1ccc(C2Nc3ccccc3NC2c2ccc(Cl)cc2)n[nH]1` (stereo not drawn), the Activity was determined as 1.93 mL in experiment [1], 1.93 mL in experiment [2], 2 mL in experiment [3] and 2.12 mL in experiment [4].

On to `O=c1ccc(-c2nc3ccccc3nc2-c2ccc(Cl)cc2)n[nH]1`, for which the Activity in experiment [1] amounted to 1.48 mL; in experiment [2], 0.95 mL; in experiment [3], 0.55 mL; in experiment [4], 0.03 mL.

Turning to `COc1ccc(-c2nc3ccccc3nc2-c2ccc(=O)[nH]n2)cc1`, the Activity in experiment [1] was determined as 1.55 mL; in experiment [2], 1.5 mL; in experiment [3], 1.38 mL; in experiment [4], 1.27 mL.
